# Molecular target: T1, Epithelial sodium channel subunit alpha (Mus musculus, UniProt Q61180)
# T1 sequence (Q61180 whole entry): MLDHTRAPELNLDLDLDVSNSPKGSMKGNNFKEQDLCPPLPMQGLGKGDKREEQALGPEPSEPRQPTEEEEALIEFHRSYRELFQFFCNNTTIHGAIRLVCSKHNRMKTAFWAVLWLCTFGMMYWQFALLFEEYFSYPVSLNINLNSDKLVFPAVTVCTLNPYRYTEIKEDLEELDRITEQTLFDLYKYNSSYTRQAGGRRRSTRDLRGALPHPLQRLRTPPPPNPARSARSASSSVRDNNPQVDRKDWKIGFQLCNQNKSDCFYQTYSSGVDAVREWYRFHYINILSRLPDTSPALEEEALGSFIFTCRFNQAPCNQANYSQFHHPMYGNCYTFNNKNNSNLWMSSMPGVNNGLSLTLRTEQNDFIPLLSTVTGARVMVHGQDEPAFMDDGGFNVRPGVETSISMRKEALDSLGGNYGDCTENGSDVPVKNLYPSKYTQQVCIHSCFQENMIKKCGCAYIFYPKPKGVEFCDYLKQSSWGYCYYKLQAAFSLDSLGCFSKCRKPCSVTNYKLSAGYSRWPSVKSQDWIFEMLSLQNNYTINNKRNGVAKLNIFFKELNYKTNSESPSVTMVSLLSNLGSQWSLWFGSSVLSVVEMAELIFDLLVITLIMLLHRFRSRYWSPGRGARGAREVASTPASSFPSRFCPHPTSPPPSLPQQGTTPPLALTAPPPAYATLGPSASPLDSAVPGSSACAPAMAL
# Assay: Inhibition of ENaC in mouse M1 assessed as effect on trans epithelial electrical resistance by measuring short circuit currents by voltage-clamp based Ussing chamber assay
row,Compound,IC50 [nM]
1,COc1ccc(CCC[N@@+]2(C)CCC[C@H](NC(=O)c3nc(Cl)c(N)nc3N)C2)cc1,70
2,COc1ccc(CCC[N+]2(CCCc3ccc(C(=O)NCCCN(C)C)cc3)CCCC(NC(=O)c3nc(Cl)c(N)nc3N)C2)cc1 (stereo unspecified),20
3,Nc1nc(N)c(C(=O)N[C@H]2CCC[N+](CCCc3ccc(OCC(=O)NCCn4ccnc4)cc3)(CCCc3ccc(OCC(=O)NCCn4ccnc4)cc3)C2)nc1Cl,9

# The remaining lines, values ahead:
row,IC50 [nM],Compound
1,6,COc1ccc(CCC[N+]2(CCCc3ccccc3)CCCC(NC(=O)c3nc(Cl)c(N)nc3N)C2)cc1 (stereo unspecified)
2,13,Nc1nc(N)c(C(=O)N[C@H]2CCC[N+](CCCc3ccc(OCC(=O)NCCCO)cc3)(CCCc3ccc(OCC(=O)NCCCO)cc3)C2)nc1Cl
3,6,Nc1nc(N)c(C(=O)N[C@H]2CCC[N+](CCCc3ccc(OCC(=O)NCCc4ccccn4)cc3)(CCCc3ccc(OCC(=O)NCCc4ccccn4)cc3)C2)nc1Cl
